Measured values taken from patent publication US20140088124A1, “IMIDAZOLE DERIVATIVES” (priority 2011, published 2014).

Biological target: T1, human DGAT1 (Homo sapiens, UniProt O75907)
T1 sequence (O75907 1-488): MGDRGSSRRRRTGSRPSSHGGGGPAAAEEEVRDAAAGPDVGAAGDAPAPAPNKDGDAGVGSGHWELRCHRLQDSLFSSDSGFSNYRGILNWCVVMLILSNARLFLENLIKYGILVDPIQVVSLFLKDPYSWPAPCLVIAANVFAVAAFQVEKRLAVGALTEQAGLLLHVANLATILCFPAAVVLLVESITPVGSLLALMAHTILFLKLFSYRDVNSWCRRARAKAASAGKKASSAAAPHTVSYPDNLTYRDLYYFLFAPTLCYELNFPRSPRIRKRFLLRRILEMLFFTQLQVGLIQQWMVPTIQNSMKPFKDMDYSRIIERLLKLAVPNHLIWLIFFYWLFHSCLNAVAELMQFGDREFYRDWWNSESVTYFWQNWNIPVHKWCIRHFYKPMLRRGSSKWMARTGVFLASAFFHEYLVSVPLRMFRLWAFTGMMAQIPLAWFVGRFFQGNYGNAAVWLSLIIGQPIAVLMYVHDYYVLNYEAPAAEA
Test: DGAT1 CPM Assay
Type: biochemical
Conditions: human DGAT1, CPM fluorescence, 1 hour incubation at room temperature
Procedure: 20 uL of 90 uM CPM reagent in 90% ethanol was added after 1 hour incubation at room temperature.

IC50 | SMILES
23 nM | O=C(O)C[C@H]1CC[C@@H](O[C@H]2C[C@H]3C[C@@H]2CN3c2ccc(-c3nc4cc(F)ccc4[nH]3)cn2)CC1 (single isomer, unassigned; enantiomer 1) [Example 28, [cis-4-({2-[5-(5-fluoro-1-benzimidazol-2-yl)pyridin-2-yl]-2-azabicyclo[2.2.1]hept-5-yl}oxy)cyclohexyl]acetic acid enantiomer 1]
20 nM | CCOc1ccc2nc(-c3ccc(N4CCC(O[C@H]5CC[C@@H](CC(=O)O)CC5)CC4)nc3)[nH]c2n1 [Example 9]
10 nM | O=C(O)CC1CC(OC2CCN(c3ccc(-c4nc5ccc(C(F)(F)F)cc5[nH]4)cn3)CC2)C1 (stereo not shown) [Example 52]
17 nM | O=C(O)C1(COC2CCN(c3ccc(-c4nc5ccc(Cl)cc5[nH]4)cn3)CC2)CCOCC1 [Example 50]
27 nM | C[C@]1(C(=O)O)CC[C@H](OC2CCN(c3ccc(-c4nc5ccccc5[nH]4)cn3)CC2)CC1 [Example 101]
4 nM | C[C@]1(C(=O)O)CC[C@H](OC2CCN(c3ccc(-c4nc5ccc(Cl)cc5[nH]4)cn3)CC2)CC1 [Example 102]
44 nM | C[C@]1(C(=O)O)CC[C@@H](OC2CCN(c3ccc(-c4nc5ccccc5[nH]4)cn3)CC2)CC1 [Example 105, cis-4-({1-[5-(1H-benzimidazol-2-yl)pyridin-2-yl}piperidin-4-yl]oxy)-1-methylcyclohexanecarboxylic acid]
5 nM | CC(C)(COC1CCN(c2ccc(-c3nc4cc(Cl)ccc4[nH]3)cn2)CC1)C(=O)O [Example 47]
7 nM | O=C(O)[C@H]1C[C@H](OC2CCN(c3ccc(-c4nc5ccc(C(F)(F)F)cc5[nH]4)cn3)CC2)C1 [Example 33, trans-3-[(1-{5-[6-(trifluoromethyl)-1H-benzimidazol-2-yl]pyridin-2-yl}piperidin-4-yl)oxy]cyclobutanecarboxylic acid]
1 nM | O=C(O)Cc1ccc(OC2CCN(c3ccc(-c4nc5cc(Cl)ccc5[nH]4)cn3)CC2)cc1 [Example 129]
46 nM | CC(C)(COC1CCN(c2ccc(-c3nc4cc(C(F)(F)F)cnc4[nH]3)cn2)CC1)C(=O)O [Example 61]
11 nM | O=C(O)[C@H]1CC[C@H](OC2CCN(c3ccc(-c4nc5ccc(C(F)(F)F)nc5[nH]4)cn3)CC2)CC1 [Example 70, trans-4-[(1-{5-[5-(trifluoromethyl)-3H-imidazo[4,5-b]pyridin-2-yl]pyridin-2-yl}piperidin-4-yl)oxy]cyclohexanecarboxylic acid]
6 nM | C[C@]1(C(=O)O)C[C@@H](OC2CCN(c3ccc(-c4nc5cc(C(F)(F)F)ccc5[nH]4)cn3)CC2)C1 [Example 104]
1200 nM | O=C(O)C1(COC2CCN(c3ccc(-c4nc5ccccc5[nH]4)cn3)CC2)CC1 [Example 41]
15 nM | C[C@]1(C(=O)O)CC[C@@H](OC2CCN(c3ccc(-c4nc5cc(F)c(F)cc5[nH]4)cn3)CC2)CC1 [Example 106]
2 nM | O=C(O)CC1C[C@@H]2CC(OC3CCN(c4ccc(-c5nc6ccc(C(F)(F)F)cc6[nH]5)cn4)CC3)C[C@@H]2C1 (stereo partly shown) [Example 57]
2 nM | CC(C)(COC1CCN(c2ccc(-c3nc4cc(Cl)c(Cl)cc4[nH]3)cn2)CC1)C(=O)O [Example 64]
6 nM | O=C(O)C1(COC2CCN(c3ccc(-c4nc5ccc(Cl)cc5[nH]4)cn3)CC2)CCC1 [Example 43]
3 nM | O=C(O)[C@H]1CC[C@H](OC2CCN(c3ccc(-c4nc5cc(Cl)ccc5[nH]4)cn3)CC2)CC1 [Example 71]
6600 nM | Cc1nc(N2CCC(O[C@H]3CC[C@@H](CC(=O)O)CC3)CC2)ccc1-c1nc2ccccc2[nH]1 [Example 11]
90 nM | CC(C)(COC1CCN(c2ccc(-c3nc4cc(C#N)ccc4[nH]3)cn2)CC1)C(=O)O [Example 62]
99 nM | COC(=O)c1cccc(COC2CCN(c3ccc(-c4nc5cc(C(F)(F)F)ccc5[nH]4)cn3)CC2)c1 [Example 116]
60 nM | COc1ccc2[nH]c(-c3ccc(N4CCC(OCC(C)(C)C(=O)O)CC4)nc3)nc2n1 [Example 48]
2 nM | O=C(O)[C@H]1CC[C@H](OC2CCN(c3ccc(-c4nc5cc(C(F)(F)F)ccc5[nH]4)cn3)CC2)CC1 [Example 69, trans-4-[(1-{5-[5-(trifluoromethyl)-1H-benzimidazol-2-yl]pyridin-2-yl}piperidin-4-yl)oxy]cyclohexanecarboxylic acid]
35 nM | CCOC(=O)[C@H]1CC[C@H](OC2CCN(c3ccc(-c4nc5cc(Cl)ccc5[nH]4)cn3)CC2)CC1 [Example 72]
16 nM | CC(C)(COC1CCN(c2ccc(-c3nc4cc(F)c(F)cc4[nH]3)cn2)CC1)C(=O)O [Example 60]
15 nM | O=C(O)[C@H]1CC[C@H](OC2CCN(c3ccc(-c4nc5cc(F)ccc5[nH]4)cn3)CC2)CC1 [Example 74]

IC50 | SMILES
2 nM | C[C@]1(C(=O)O)CC[C@H](OC2CCN(c3ccc(-c4nc5ccc(C(F)(F)F)cc5[nH]4)cn3)CC2)CC1 [Example 100]
4 nM | O=C(NS(=O)(=O)c1ccc(Cl)cc1)[C@H]1CC[C@H](OC2CCN(c3ccc(-c4nc5cc(F)ccc5[nH]4)cn3)CC2)CC1 [Example 89]
9 nM | O=C(O)[C@H]1C[C@@H](OC2CCN(c3ccc(-c4nc5ccc(C(F)(F)F)cc5[nH]4)cn3)CC2)C1 [Example 32, cis-3-[(1-{5-[6-(trifluoromethyl)-1H-benzimidazol-2-yl]pyridin-2-yl}piperidin-4-yl)oxy]cyclobutanecarboxylic acid]
67 nM | CC(C)(COC1CCN(c2ccc(-c3nc4ccccc4[nH]3)cn2)CC1)C(=O)O [Example 36]
9 nM | O=C(NS(=O)(=O)c1ccc(C(F)(F)F)cc1)[C@H]1CC[C@H](OC2CCN(c3ccc(-c4nc5cc(F)ccc5[nH]4)cn3)CC2)CC1 [Example 85]
3 nM | O=C(O)C[C@H]1CC[C@@H](OC2CCN(c3ccc(-c4nc5cc(F)c(F)cc5[nH]4)cn3)CC2)CC1 [Example 25]
2 nM | O=C(O)c1cccc(OC2CCN(c3ccc(-c4nc5cc(Cl)ccc5[nH]4)cn3)CC2)c1 [Example 132]
14 nM | CCOC(=O)[C@H]1CC[C@@H](OC2CCN(c3ccc(-c4nc5cc(Cl)ccc5[nH]4)cn3)CC2)CC1 [Example 75]
29 nM | COc1ccc2nc(-c3ccc(N4CCC(O[C@H]5CC[C@H](N6CC(=O)NS6(=O)=O)CC5)CC4)nc3)[nH]c2n1 [Example 120]
8 nM | O=C(O)C1(COC2CCN(c3ccc(-c4nc5ccc(C(F)(F)F)cc5[nH]4)cn3)CC2)CC1 [Example 38]
48 nM | C[C@]1(C(=O)O)CC[C@@H](OC2CCN(c3ccc(-c4nc5ncc(C(F)(F)F)cc5[nH]4)cn3)CC2)CC1 [Example 107]
45 nM | O=C1CN([C@H]2CC[C@@H](OC3CCN(c4ccc(-c5nc6ccccc6[nH]5)cn4)CC3)CC2)S(=O)(=O)N1 [Example 121]
61 nM | O=C(O)C[C@H]1CC[C@H](OC2CCN(c3ccc(-c4nc5cc(Cl)cnc5[nH]4)cn3)CC2)CC1 [Example 20]
5 nM | O=C(O)C[C@H]1CC[C@@H](OC2CCN(c3ccc(-c4nc5ccc(C(F)(F)F)cc5[nH]4)cn3)CC2)CC1 [Example 5]
220 nM | O=C(O)C1(COC2CCN(c3ccc(-c4nc5ccccc5[nH]4)cn3)CC2)CCOCC1 [Example 49]
9 nM | O=C(O)c1cccc(OC2CCN(c3ccc(-c4nc5cc(C(F)(F)F)ccc5[nH]4)cn3)CC2)c1 [Example 114, 3-[(1-{5-[5-(trifluoromethyl)-1H-benzimidazol-2-yl]pyridin-2-yl}piperidin-4-yl)oxy]benzoic acid]
2 nM | O=C(O)C1(COC2CCN(c3ccc(-c4nc5ccc(C(F)(F)F)cc5[nH]4)cn3)CC2)CCC1 [Example 37]
28 nM | O=C(O)c1cncc(OC2CCN(c3ccc(-c4nc5cc(C(F)(F)F)ccc5[nH]4)cn3)CC2)c1 [Example 115, 5-[(1-{5-[5-(trifluoromethyl)-1H-benzimidazol-2-yl]pyridin-2-yl}piperidin-4-yl)oxy]pyridine-3-carboxylic acid]
71 nM | O=C(O)C1(C(=O)O)CC(OC2CCN(c3ccc(-c4nc5cc(F)ccc5[nH]4)cn3)CC2)C1 [Example 93]
50 nM | O=C(O)C1(COC2CCN(c3ccc(-c4nc5ccccc5[nH]4)cn3)CC2)CCC1 [Example 42]
2 nM | O=C(O)c1ccc(OC2CCN(c3ccc(-c4nc5cc(Cl)ccc5[nH]4)cn3)CC2)cc1 [Example 131]
15 nM | O=C(O)C1(COC2CCN(c3ccc(-c4nc5ccc(F)cc5[nH]4)cn3)CC2)CCC1 [Example 39]
122 nM | O=C(O)C1(C(=O)O)CC(OC2CCN(c3ccc(-c4nc5cc(F)c(F)cc5[nH]4)cn3)CC2)C1 [Example 94]
4 nM | C[C@]1(C(=O)O)C[C@H](OC2CCN(c3ccc(-c4nc5cc(C(F)(F)F)ccc5[nH]4)cn3)CC2)C1 [Example 103]
12 nM | O=C(O)C[C@H]1CC[C@@H](OC2CCN(c3ccc(-c4nc5cc(F)ccc5[nH]4)cn3)C2)CC1 (single isomer, unassigned) [Example 139]
17 nM | O=C(NS(=O)(=O)C1CC1)[C@H]1CC[C@H](OC2CCN(c3ccc(-c4nc5cc(F)ccc5[nH]4)cn3)CC2)CC1 [Example 83]
790 nM | Cc1ccc2[nH]c(-c3ccc(N4CCC(OCC(C)(C)C(=O)O)CC4)nc3)nc2n1 [Example 65]

SMILES | IC50
O=C(O)C[C@H]1CC[C@H](OC2CCN(c3ccc(-c4nc5cc(Cl)ccc5[nH]4)cn3)CC2)CC1 [Example 19] | 3 nM
